Experimental data reported in patent publication US20240025884A1 (Dong-A ST Co., Ltd., priority 2022, published 2024).

Biological target: GCN2 (Homo sapiens (Human), UniProt Q9P2K8)
Assay: GCN2 Biochemical Assay (TR-FRET, GFP-eIF2S1 substrate phosphorylation)
Details: read-out: IC50 (GCN2 Inhibitory Activity)
Procedure, shortened: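 TR-FRET readout (Ex 340, Em 490/520 nm) after 2–3 h with Tb-labelled phospho-eIF2S1 antibody in stop mix, following a 70 min room-temperature kinase step. Reaction: in-house GCN2, GFP-eIF2S1, ATP, tRNA in Tris pH 7.5 (2× stocks 1.6 nM, 50 nM, 0.2 mM); compounds tested at 10 concentrations, with a phospho-substrate artifact counter-plate.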

GCN2, sequence (Q9P2K8 whole entry): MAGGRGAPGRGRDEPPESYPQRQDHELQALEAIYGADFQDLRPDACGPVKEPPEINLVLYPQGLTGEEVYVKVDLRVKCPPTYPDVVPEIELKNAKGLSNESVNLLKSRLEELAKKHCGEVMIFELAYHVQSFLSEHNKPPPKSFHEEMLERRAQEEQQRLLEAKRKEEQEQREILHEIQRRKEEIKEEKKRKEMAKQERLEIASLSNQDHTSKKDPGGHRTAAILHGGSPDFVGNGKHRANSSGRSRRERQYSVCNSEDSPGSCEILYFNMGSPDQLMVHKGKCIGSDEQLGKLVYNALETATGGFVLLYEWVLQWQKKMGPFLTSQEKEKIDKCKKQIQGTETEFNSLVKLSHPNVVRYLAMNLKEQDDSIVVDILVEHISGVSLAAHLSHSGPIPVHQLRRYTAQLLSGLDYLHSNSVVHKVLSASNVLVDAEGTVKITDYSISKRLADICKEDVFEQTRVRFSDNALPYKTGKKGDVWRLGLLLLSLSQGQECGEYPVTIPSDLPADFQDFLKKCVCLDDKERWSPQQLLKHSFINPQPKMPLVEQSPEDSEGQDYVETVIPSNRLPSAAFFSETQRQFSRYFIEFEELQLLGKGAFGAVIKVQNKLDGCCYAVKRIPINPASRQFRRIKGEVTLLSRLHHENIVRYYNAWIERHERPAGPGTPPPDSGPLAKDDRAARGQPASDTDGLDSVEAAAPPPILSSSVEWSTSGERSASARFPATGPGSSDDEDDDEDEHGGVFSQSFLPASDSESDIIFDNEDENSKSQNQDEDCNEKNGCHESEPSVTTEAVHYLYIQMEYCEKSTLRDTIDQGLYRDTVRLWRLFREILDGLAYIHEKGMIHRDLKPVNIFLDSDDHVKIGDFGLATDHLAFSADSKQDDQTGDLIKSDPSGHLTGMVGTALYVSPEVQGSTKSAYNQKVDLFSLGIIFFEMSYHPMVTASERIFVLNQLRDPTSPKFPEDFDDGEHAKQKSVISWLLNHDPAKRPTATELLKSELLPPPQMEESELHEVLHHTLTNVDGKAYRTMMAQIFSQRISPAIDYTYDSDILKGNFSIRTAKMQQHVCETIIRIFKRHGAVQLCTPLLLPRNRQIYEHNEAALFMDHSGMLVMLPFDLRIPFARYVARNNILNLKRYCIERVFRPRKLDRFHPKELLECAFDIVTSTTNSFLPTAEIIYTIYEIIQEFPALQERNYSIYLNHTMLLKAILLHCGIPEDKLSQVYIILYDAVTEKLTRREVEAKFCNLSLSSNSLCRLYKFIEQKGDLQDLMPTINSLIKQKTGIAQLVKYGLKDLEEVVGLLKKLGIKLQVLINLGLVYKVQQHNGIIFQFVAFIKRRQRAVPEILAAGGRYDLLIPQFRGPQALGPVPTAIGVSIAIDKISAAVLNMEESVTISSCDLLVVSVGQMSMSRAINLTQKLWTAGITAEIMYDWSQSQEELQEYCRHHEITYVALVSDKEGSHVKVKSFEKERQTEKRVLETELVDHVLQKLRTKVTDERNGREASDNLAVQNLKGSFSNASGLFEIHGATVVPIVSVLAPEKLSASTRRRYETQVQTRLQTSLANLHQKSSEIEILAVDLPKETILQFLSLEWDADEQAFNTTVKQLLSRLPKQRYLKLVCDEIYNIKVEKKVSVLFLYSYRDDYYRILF

SMILES | IC50
Cc1cnc(Nc2cc(C)n(C)n2)nc1-c1c[nH]c2c(N3Cc4c(cccc4C4=CCS(=O)(=O)CC4)C3=O)cccc12 [Example 468, 2-(3-(2-((1,5-dimethyl-1H-pyrazol-3-yl)amino)-5-methylpyrimidin-4-yl)-1H-indol-7-yl)-4-(1,1-dioxido-3,6-dihydro-2H-thiopyran-4-yl)isoindolin-1-one] | < 10 nM
Cc1cnc(Nc2cc(C)n(C)n2)nc1-c1c[nH]c2c(N3Cc4c(cccc4-c4ccnc(C#N)c4)C3=O)cccc12 [Example 469, 4-(2-(3-(2-((1,5-dimethyl-1H-pyrazol-3-yl)amino)-5-methylpyrimidin-4-yl)-1H-indol-7-yl)-1-oxoisoindolin-4-yl)picolinonitrile] | < 10 nM
Cc1cnc(Nc2cc(C)n(C)n2)nc1-c1c[nH]c2c(N3Cc4c(cccc4-c4ccc(C#N)nc4)C3=O)cccc12 [Example 470, 5-(2-(3-(2-((1,5-dimethyl-1H-pyrazol-3-yl)amino)-5-methylpyrimidin-4-yl)-1H-indol-7-yl)-1-oxoisoindolin-4-yl)picolinonitrile] | < 10 nM
Cc1cnc(Nc2cc(C)n(C)n2)nc1-c1c[nH]c2c(N3Cc4c(cccc4-c4ccncc4CO)C3=O)cccc12 [Example 471] | < 10 nM
Cc1cnc(Nc2cc(C)n(C)n2)nc1-c1c[nH]c2c(N3Cc4c(cccc4-c4ccnc(CO)c4)C3=O)cccc12 [Example 472, 2-(3-(2-((1,5-dimethyl-1H-pyrazol-3-yl)amino)-5-methylpyrimidin-4-yl)-1H-indol-7-yl)-4-(2-(hydroxymethyl)pyridin-4-yl)isoindolin-1-one] | < 10 nM
Cc1cnc(Nc2cc(C)n(C)n2)nc1-c1c[nH]c2c(N3Cc4c(cccc4-c4ccnc(C(N)=O)c4)C3=O)cccc12 [Example 473, 4-(2-(3-(2-((1,5-dimethyl-1H-pyrazol-3-yl)amino)-5-methylpyrimidin-4-yl)-1H-indol-7-yl)-1-oxoisoindolin-4-yl)picolinamide] | < 10 nM
Cc1cnc(Nc2cc(C)n(C)n2)nc1-c1c[nH]c2c(N3Cc4c(cccc4-c4ccc(C(N)=O)nc4)C3=O)cccc12 [Example 474, 5-(2-(3-(2-((1,5-dimethyl-1H-pyrazol-3-yl)amino)-5-methylpyrimidin-4-yl)-1H-indol-7-yl)-1-oxoisoindolin-4-yl)picolinamide] | < 10 nM
Cc1cnc(Nc2cc(C)n(C)n2)nc1-c1c[nH]c2c(N3Cc4c(cccc4-c4ccnc(N(C)C)c4)C3=O)cccc12 [Example 475, 2-(3-(2-((1,5-dimethyl-1H-pyrazol-3-yl)amino)-5-methylpyrimidin-4-yl)-1H-indol-7-yl)-4-(2-(dimethylamino)pyridin-4-yl)isoindolin-1-one] | < 10 nM
CNc1cc(-c2cccc3c2CN(c2cccc4c(-c5nc(Nc6cc(C)n(C)n6)ncc5C)c[nH]c24)C3=O)ccn1 [Example 476, 2-(3-(2-((1,5-dimethyl-1H-pyrazol-3-yl)amino)-5-methylpyrimidin-4-yl)-1H-indol-7-yl)-4-(2-(methylamino)pyridin-4-yl)isoindolin-1-one] | < 10 nM
Cc1cncc(-c2cccc3c2CN(c2cccc4c(-c5nc(Nc6cc(C)n(C)n6)ncc5C)c[nH]c24)C3=O)c1 [Example 477, 2-(3-(2-((1,5-dimethyl-1H-pyrazol-3-yl)amino)-5-methylpyrimidin-4-yl)-1H-indol-7-yl)-4-(5-methylpyridin-3-yl)isoindolin-1-one] | < 10 nM
Cc1cnc(Nc2cc(C)n(C)n2)nc1-c1c[nH]c2c(N3Cc4c(cccc4-c4cncc(F)c4)C3=O)cccc12 [Example 478, 2-(3-(2-((1,5-dimethyl-1H-pyrazol-3-yl)amino)-5-methylpyrimidin-4-yl)-1H-indol-7-yl)-4-(5-fluoropyridin-3-yl)isoindolin-1-one] | < 10 nM
Cc1cc(-c2cccc3c2CN(c2cccc4c(-c5nc(Nc6cc(C)n(C)n6)ncc5C)c[nH]c24)C3=O)cc(C)n1 [Example 479, 2-(3-(2-((1,5-dimethyl-1H-pyrazol-3-yl)amino)-5-methylpyrimidin-4-yl)-1H-indol-7-yl)-4-(2,6-dimethylpyridin-4-yl)isoindolin-1-one] | < 10 nM
Cc1cnc(Nc2cc(C)n(C)n2)nc1-c1c[nH]c2c(N3Cc4c(-c5ccncc5)ccc(F)c4C3=O)cccc12 [Example 480, 2-(3-(2-((1,5-dimethyl-1H-pyrazol-3-yl)amino)-5-methylpyrimidin-4-yl)-1H-indol-7-yl)-7-fluoro-4-(pyridin-4-yl)isoindolin-1-one] | < 10 nM
COc1cc(-c2ccc(F)c3c2CN(c2cccc4c(-c5nc(Nc6cc(C)n(C)n6)ncc5C)c[nH]c24)C3=O)ccn1 [Example 481, 2-(3-(2-((1,5-dimethyl-1H-pyrazol-3-yl)amino)-5-methylpyrimidin-4-yl)-1H-indol-7-yl)-7-fluoro-4-(2-methoxypyridin-4-yl)isoindolin-1-one] | < 10 nM
CNc1cc(-c2ccc(F)c3c2CN(c2cccc4c(-c5nc(Nc6cc(C)n(C)n6)ncc5C)c[nH]c24)C3=O)ccn1 [Example 482, 2-(3-(2-((1,5-dimethyl-1H-pyrazol-3-yl)amino)-5-methylpyrimidin-4-yl)-1H-indol-7-yl)-7-fluoro-4-(2-(methylamino)pyridin-4-yl)isoindolin-1-one] | < 10 nM
Cc1cnc(Nc2cc(C)n(C)n2)nc1-c1c[nH]c2c(N3Cc4c(-c5ccnc(N(C)C)c5)ccc(F)c4C3=O)cccc12 [Example 483, 2-(3-(2-((1,5-dimethyl-1H-pyrazol-3-yl)amino)-5-methylpyrimidin-4-yl)-1H-indol-7-yl)-4-(2-(dimethylamino)pyridin-4-yl)-7-fluoroisoindolin-1-one] | < 10 nM
Cc1cnc(Nc2cc(C)n(C)n2)nc1-c1c[nH]c2c(N3Cc4c(-c5cncc(F)c5)ccc(F)c4C3=O)cccc12 [Example 484, 2-(3-(2-((1,5-dimethyl-1H-pyrazol-3-yl)amino)-5-methylpyrimidin-4-yl)-1H-indol-7-yl)-7-fluoro-4-(5-fluoropyridin-3-yl)isoindolin-1-one] | < 10 nM
Cc1cnc(Nc2cc(C)n(C)n2)nc1-c1c[nH]c2c(N3Cc4c(-c5ccnc(F)c5)ccc(F)c4C3=O)cccc12 [Example 485, 2-(3-(2-((1,5-dimethyl-1H-pyrazol-3-yl)amino)-5-methylpyrimidin-4-yl)-1H-indol-7-yl)-7-fluoro-4-(2-fluoropyridin-4-yl)isoindolin-1-one] | < 10 nM
Cc1cncc(-c2ccc(F)c3c2CN(c2cccc4c(-c5nc(Nc6cc(C)n(C)n6)ncc5C)c[nH]c24)C3=O)c1 [Example 486, 2-(3-(2-((1,5-dimethyl-1H-pyrazol-3-yl)amino)-5-methylpyrimidin-4-yl)-1H-indol-7-yl)-7-fluoro-4-(5-methylpyridin-3-yl)isoindolin-1-one] | < 10 nM
Cc1cnccc1-c1ccc(F)c2c1CN(c1cccc3c(-c4nc(Nc5cc(C)n(C)n5)ncc4C)c[nH]c13)C2=O [Example 487, 2-(3-(2-((1,5-dimethyl-1H-pyrazol-3-yl)amino)-5-methylpyrimidin-4-yl)-1H-indol-7-yl)-7-fluoro-4-(3-methylpyridin-4-yl)isoindolin-1-one] | < 10 nM
Cc1cc(-c2ccc(F)c3c2CN(c2cccc4c(-c5nc(Nc6cc(C)n(C)n6)ncc5C)c[nH]c24)C3=O)cc(C)n1 [Example 488, 2-(3-(2-((1,5-dimethyl-1H-pyrazol-3-yl)amino)-5-methylpyrimidin-4-yl)-1H-indol-7-yl)-4-(2,6-dimethylpyridin-4-yl)-7-fluoroisoindolin-1-one] | < 10 nM
Cc1cnc(Nc2cc(C)n(C)n2)nc1-c1c[nH]c2c(N3Cc4c(-c5ccncc5)ccc([N+](=O)[O-])c4C3=O)cccc12 [Example 489, 2-(3-(2-((1,5-dimethyl-1H-pyrazol-3-yl)amino)-5-methylpyrimidin-4-yl)-1H-indol-7-yl)-7-nitro-4-(pyridin-4-yl)isoindolin-1-one] | < 10 nM
Cc1cnc(Nc2cc(C)n(C)n2)nc1-c1c[nH]c2c(N3Cc4c(-c5ccncc5)ccc(N(C)C)c4C3=O)cccc12 [Example 490, 2-(3-(2-((1,5-dimethyl-1H-pyrazol-3-yl)amino)-5-methylpyrimidin-4-yl)-1H-indol-7-yl)-7-(dimethylamino)-4-(pyridin-4-yl)isoindolin-1-one] | 10 to 100 nM
CNc1ccc(-c2ccncc2)c2c1C(=O)N(c1cccc3c(-c4nc(Nc5cc(C)n(C)n5)ncc4C)c[nH]c13)C2 [Example 491, 2-(3-(2-((1,5-dimethyl-1H-pyrazol-3-yl)amino)-5-methylpyrimidin-4-yl)-1H-indol-7-yl)-7-(methylamino)-4-(pyridin-4-yl)isoindolin-1-one] | 100 to 1000 nM
Cc1cnc(Nc2cc(C)n(C)n2)nc1-c1c[nH]c2c(N3Cc4c(-c5ccccc5)ccc(I)c4C3=O)cccc12 [Example 492, 2-(3-(2-((1,5-dimethyl-1H-pyrazol-3-yl)amino)-5-methylpyrimidin-4-yl)-1H-indol-7-yl)-7-iodo-4-phenylisoindolin-1-one] | 100 to 1000 nM
Cc1cnc(Nc2cc(C)n(C)n2)nc1-c1c[nH]c2c(N3Cc4c(-c5ccccc5)ccnc4C3=O)cccc12 [Example 493, 6-(3-(2-((1,5-dimethyl-1H-pyrazol-3-yl)amino)-5-methylpyrimidin-4-yl)-1H-indol-7-yl)-4-phenyl-5,6-dihydro-7H-pyrrolo[3,4-b]pyridin-7-one] | < 10 nM
Cc1cnc(Nc2cc(C)n(C)n2)nc1-c1c[nH]c2c(N3Cc4c(-c5ccncc5)ccnc4C3=O)cccc12 [Example 494, 6-(3-(2-((1,5-dimethyl-1H-pyrazol-3-yl)amino)-5-methylpyrimidin-4-yl)-1H-indol-7-yl)-4-(pyridin-4-yl)-5,6-dihydro-7H-pyrrolo[3,4-b]pyridin-7-one] | < 10 nM
Cc1cnc(Nc2cc(C)n(C)n2)nc1-c1c[nH]c2c(N3Cc4c(-c5cccnc5)ccnc4C3=O)cccc12 [Example 495, 6-(3-(2-((1,5-dimethyl-1H-pyrazol-3-yl)amino)-5-methylpyrimidin-4-yl)-1H-indol-7-yl)-4-(pyridin-3-yl)-5,6-dihydro-7H-pyrrolo[3,4-b]pyridin-7-one] | < 10 nM
